Patent publication US9156801B2, “2-substituted oleanolic acid derivative, method preparing for same, and application thereof” (HANGZHOU BENSHENG PHARMACEUTICAL CO., LTD., priority 2011, dated 2015)
Values after ≈ are worked out from the molar mass of the structure shown.

Columns and labels:
[1] = system: H9 cell line; assay: leukemia cell growth inhibition, MTT; type: cell-based; settings: Homo sapiens; for IC50: H9, 72 h; for inhibition at 16 µg/mL: H9, 16 μg/mL compound, 72 h, read-out: IR (cell proliferation inhibition rate)
Method in brief: (§1)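 Proliferation inhibition rates derive from MTT-measured viability, normalised so the compound-free group equals 0%. Exposure lasted 72 hours at 37° C, 5% CO2, starting from 6000 cells/well in serum-supplemented (10% FBS) 1640 medium.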

[2] = system: Jurkat cell line; assay: leukemia cell growth inhibition, MTT; type: cell-based; settings: Homo sapiens, 72 h; for inhibition at 16 µg/mL: 16 μg/mL compound, read-out: IR (cell proliferation inhibition rate)
Method in brief: as §1

[3] = system: K562/adr cell line; assay: leukemia cell growth inhibition, MTT; type: cell-based; settings: Homo sapiens, 72 h; for IC50: K562/Adr; for inhibition at 16 µg/mL: K562/adr, 16 μg/mL compound, read-out: IR (cell proliferation inhibition rate)
Method in brief: as §1

[4] = system: Kasumi-1 cell line; assay: leukemia cell growth inhibition, MTT; type: cell-based; settings: Homo sapiens; for inhibition at 16 µg/mL: Kasumi-1, 16 μg/mL compound, 72 h, read-out: IR (cell proliferation inhibition rate); for IC50: Kasumi-1, 72 h
Method in brief: as §1

[5] = system: NB4 cell line; assay: leukemia cell growth inhibition, MTT; type: cell-based; settings: Homo sapiens, NB-4; for inhibition at 16 µg/mL: NB4, 16 μg/mL compound, 72 h, read-out: IR (cell proliferation inhibition rate); for IC50: NB4, 72 h
Method in brief: as §1

[6] = system: RPMI8226 cell line; assay: multiple myeloma cell growth inhibition, MTT; type: cell-based; settings: Homo sapiens, RPMI-8226; for inhibition at 16 µg/mL: RPMI8226, 16 μg/mL compound, 72 h, read-out: IR (cell proliferation inhibition rate); for IC50: RPMI8226, 72 h
Method in brief: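 Viability was measured by MTT after a 72 h compound exposure (37° C, 5% CO2) of RPMI8226 myeloma cells seeded at 6000 per well in 1640 medium with 10% fetal bovine serum. Growth inhibition was expressed relative to untreated cells, taken as 0%.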

[7] = system: Hep G2 cell line; assay: solid tumor cell growth inhibition, MTT; type: cell-based, human; settings: Homo sapiens; for inhibition at 16 µg/mL: HepG2, 72 h, Hep G2, 16 μg/mL compound, 72 h, read-out: IR (cell proliferation inhibition rate); for IC50: HepG2, Hep G2, 72 h
Method in brief: (§2)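 Cells (4000/well) in DMEM high glucose with 10% FBS were pre-cultured 24 h at 37° C, 5% CO2, then exposed to graded compound concentrations for 72 h. Viable cells were measured by MTT, with untreated controls set at 0% inhibition.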

[8] = system: A549 cell line; assay: solid tumor cell growth inhibition, MTT; type: cell-based; settings: Homo sapiens; for IC50: A549, 72 h; for inhibition at 16 µg/mL: A549, 16 μg/mL compound, 72 h, read-out: IR (cell proliferation inhibition rate)
Method in brief: as §2

[9] = system: Becap37 cell line; assay: solid tumor cell growth inhibition, MTT; type: cell-based; settings: Homo sapiens; for inhibition at 16 µg/mL: Becap37, 16 μg/mL compound, 72 h, read-out: IR (cell proliferation inhibition rate); for IC50: Becap37, 72 h
Method in brief: as §2

[10] = system: CNE cell line; assay: solid tumor cell growth inhibition, MTT; type: cell-based; settings: Homo sapiens, 72 h; for inhibition at 16 µg/mL: 16 μg/mL compound, read-out: IR (cell proliferation inhibition rate)
Method in brief: as §2

[11] = system: CaES-17 cell line; assay: solid tumor cell growth inhibition, MTT; type: cell-based; settings: Homo sapiens, CaEs17; for inhibition at 16 µg/mL: CaES-17, 16 μg/mL compound, 72 h, read-out: IR (cell proliferation inhibition rate); for IC50: CaES-17, 72 h
Method in brief: as §2

[12] = system: Hela cell line; assay: solid tumor cell growth inhibition, MTT; type: cell-based; settings: Homo sapiens, 72 h; for IC50: HeLa; for inhibition at 16 µg/mL: Hela, 16 μg/mL compound, read-out: IR (cell proliferation inhibition rate)
Method in brief: as §2

[13] = system: Hep-2 cell line; assay: solid tumor cell growth inhibition, MTT; type: cell-based; settings: Homo sapiens; for IC50: HEp-2, 72 h; for inhibition at 16 µg/mL: Hep-2, 16 μg/mL compound, 72 h, read-out: IR (cell proliferation inhibition rate)
Method in brief: as §2

[14] = system: MG-63 cell line; assay: solid tumor cell growth inhibition, MTT; type: cell-based; settings: Homo sapiens; for IC50: MG-63, 72 h; for inhibition at 16 µg/mL: MG-63, 16 μg/mL compound, 72 h, read-out: IR (cell proliferation inhibition rate)
Method in brief: as §2

[15] = system: MGC 803 cell line; assay: solid tumor cell growth inhibition, MTT; type: cell-based; settings: Homo sapiens; for inhibition at 16 µg/mL: MGC 803, 16 μg/mL compound, 72 h, read-out: IR (cell proliferation inhibition rate); for IC50: MGC 803, 72 h
Method in brief: as §2

[16] = system: PANC-1 cell line; assay: solid tumor cell growth inhibition, MTT; type: cell-based; settings: Homo sapiens; for IC50: PANC-1, 72 h; for inhibition at 16 µg/mL: PANC-1, 16 μg/mL compound, 72 h, read-out: IR (cell proliferation inhibition rate)
Method in brief: as §2

[17] = system: PC-3 cell line; assay: solid tumor cell growth inhibition, MTT; type: cell-based; settings: Homo sapiens; for IC50: PC-3, 72 h; for inhibition at 16 µg/mL: PC-3, 16 μg/mL compound, 72 h, read-out: IR (cell proliferation inhibition rate)
Method in brief: as §2

[18] = system: RKO cell line; assay: solid tumor cell growth inhibition, MTT; type: cell-based; settings: Homo sapiens, 72 h; for inhibition at 16 µg/mL: 16 μg/mL compound, read-out: IR (cell proliferation inhibition rate)
Method in brief: as §2

[19] = system: SK-OV-3 cell line; assay: solid tumor cell growth inhibition, MTT; type: cell-based; settings: Homo sapiens; for IC50: SK-OV-3, 72 h; for inhibition at 16 µg/mL: SK-OV-3, 16 μg/mL compound, 72 h, read-out: IR (cell proliferation inhibition rate)
Method in brief: as §2

[20] = system: U87 MG cell line; assay: solid tumor cell growth inhibition, MTT; type: cell-based; settings: Homo sapiens, U-87 MG, 72 h; for inhibition at 16 µg/mL: 16 μg/mL compound, read-out: IR (cell proliferation inhibition rate)
Method in brief: as §2

| IC50 [1] [µg/mL] | IC50 [2] [µg/mL] | IC50 [3] [µg/mL] | IC50 [4] [µg/mL] | IC50 [5] [µg/mL] | IC50 [6] [µg/mL] | IC50 [7] [µg/mL] | IC50 [8] [µg/mL] | IC50 [9] [µg/mL] | IC50 [10] [µg/mL] | Compound | inhibition at 16 µg/mL [1] [%] | inhibition at 16 µg/mL [2] [%] | inhibition at 16 µg/mL [3] [%] | inhibition at 16 µg/mL [4] [%] | inhibition at 16 µg/mL [5] [%] | inhibition at 16 µg/mL [6] [%] | inhibition at 16 µg/mL [7] [%] | inhibition at 16 µg/mL [8] [%] | inhibition at 16 µg/mL [9] [%] | inhibition at 16 µg/mL [10] [%] | further results |
| --- | --- | --- | --- | --- | --- | --- | --- | --- | --- | --- | --- | --- | --- | --- | --- | --- | --- | --- | --- | --- | --- |
| 15.3 (≈ 25 µM) | 12.6 (≈ 20.6 µM) | 4.83 (≈ 7.91 µM) | 10.2 (≈ 16.6 µM) | 6.86 (≈ 11.2 µM) | 6.4 (≈ 10.5 µM) | > 16 | > 16 | > 16 | > 16 | CCN(CC)CCCNC(=O)C1C[C@@]2(C)C(CC[C@]3(C)C2CC=C2C4CC(C)(C)CC[C@]4(C(=O)O)CC[C@]23C)C(C)(C)C1=O (stereo partly drawn) [BS-OA-108] | 57.7 | 66.5 | 96.1 | 74.5 | 92.4 | 97.3 | 42.3 | 27.5 | 38.4 | 42.7 | inhibition at 16 µg/mL [11]: 32%; IC50 [11]: > 16 µg/mL; IC50 [12]: > 16 µg/mL; inhibition at 16 µg/mL [12]: 43%; IC50 [13]: > 16 µg/mL; inhibition at 16 µg/mL [13]: 22.7%; IC50 [14]: > 16 µg/mL; inhibition at 16 µg/mL [14]: 47.4%; inhibition at 16 µg/mL [15]: 13.1%; IC50 [15]: > 16 µg/mL; IC50 [16]: > 16 µg/mL; inhibition at 16 µg/mL [16]: 21.6%; IC50 [17]: > 16 µg/mL; inhibition at 16 µg/mL [17]: -8.2%; inhibition at 16 µg/mL [18]: 63.2%; IC50 [18]: 14.3 µg/mL (≈ 23.4 µM); IC50 [19]: > 16 µg/mL; inhibition at 16 µg/mL [19]: -15.6%; inhibition at 16 µg/mL [20]: 18.5%; IC50 [20]: > 16 µg/mL |
| > 16 | > 16 | 6.8 (≈ 11.7 µM) | > 16 | 10.8 (≈ 18.5 µM) | 6.21 (≈ 10.7 µM) | > 16 | > 16 | > 16 | > 16 | CN(C)CCCNC(=O)C1C[C@@]2(C)C(CC[C@]3(C)C2CC=C2C4CC(C)(C)CC[C@]4(C(=O)O)CC[C@]23C)C(C)(C)C1=O (stereo partly drawn) [BS-OA-109] | 39.4 | 32.3 | 86.2 | 36.2 | 76.6 | 96 | 32.1 | 7.5 | 19.7 | 36.5 | inhibition at 16 µg/mL [11]: 4.1%; IC50 [11]: > 16 µg/mL; IC50 [12]: > 16 µg/mL; inhibition at 16 µg/mL [12]: 23.6%; IC50 [13]: > 16 µg/mL; inhibition at 16 µg/mL [13]: 11.3%; IC50 [14]: > 16 µg/mL; inhibition at 16 µg/mL [14]: 18.9%; inhibition at 16 µg/mL [15]: 4.9%; IC50 [15]: > 16 µg/mL; IC50 [16]: > 16 µg/mL; inhibition at 16 µg/mL [16]: 12.9%; IC50 [17]: > 16 µg/mL; inhibition at 16 µg/mL [17]: -5.5%; inhibition at 16 µg/mL [18]: -4.9%; IC50 [18]: > 16 µg/mL; IC50 [19]: > 16 µg/mL; inhibition at 16 µg/mL [19]: -13.5%; inhibition at 16 µg/mL [20]: -3.8%; IC50 [20]: > 16 µg/mL |
| > 16 | 18.4 (≈ 28.8 µM) | 8.79 (≈ 13.8 µM) | > 16 | 8.95 (≈ 14 µM) | 8.58 (≈ 13.4 µM) | > 16 | > 16 | > 16 | > 16 | CN1CCN(CCCNC(=O)C2C[C@]3(C)[C@H]4CC=C5[C@@H]6CC(C)(C)CC[C@]6(C(=O)O)CC[C@@]5(C)[C@]4(C)CC[C@H]3C(C)(C)C2=O)CC1 (stereo partly drawn) [BS-OA-110] | 37.9 | 45.5 | 81.9 | 41.7 | 78.8 | 96.7 | 29.5 | 4 | 22.2 | 30.1 | inhibition at 16 µg/mL [11]: -1%; IC50 [11]: > 16 µg/mL; IC50 [12]: > 16 µg/mL; inhibition at 16 µg/mL [12]: 26.1%; IC50 [13]: > 16 µg/mL; inhibition at 16 µg/mL [13]: -6.3%; IC50 [14]: > 16 µg/mL; inhibition at 16 µg/mL [14]: 29.5%; inhibition at 16 µg/mL [15]: 2.9%; IC50 [15]: > 16 µg/mL; IC50 [16]: > 16 µg/mL; inhibition at 16 µg/mL [16]: 13.1%; IC50 [17]: > 16 µg/mL; inhibition at 16 µg/mL [17]: -11.4%; inhibition at 16 µg/mL [18]: -19.1%; IC50 [18]: > 16 µg/mL; IC50 [19]: > 16 µg/mL; inhibition at 16 µg/mL [19]: -20.1%; inhibition at 16 µg/mL [20]: -12.6%; IC50 [20]: > 16 µg/mL |
